This is an account of results in patent US20220281794A1, “METHOD OF THE ISOLATING CHLOROSESAMONE OR CHLOROSESAMONE-CONTAINING FRACTION FROM ROOTS OF GENUS SESAMUM, AND APPLICATION OF THE FRACTION THEREOF” (BRILLIANT BIOMEDICAL CORP., priority 2019, published 2022).

Format in all cases: cell-based
Test [1] concerns 4T1 mouse breast cancer cell. Briefly: cell viability assay (MTT assay), 4T1. The following applies: 4T1 cells, 24 hours treatment stated for D2 fraction. How it is done: (§1) In the first embodiment, MDA-MB-231, a human breast cancer cell and 4T1, a mouse breast cancer cell, Huh-7 and HepG2, a human liver cancer cell and BNL-1-MEA, a mouse liver cancer cell, HL60, a human blood cancer cell and WEHI-3, a mouse blood cancer cell , and
(§2) A549, a human lung cancer cell and LLC1, a mouse lung cancer cell are used for the experiments. A 96-well plate is used for cell culture. In the test, cells are treated with 0, 25, 50, 100, 200, 400 μg/mL of D2 fraction for 24 hours, and then subjected to cell viability assay (or MTT assay). In cell viability assay, cells are washed with 1X PBS once and treated with 0.5 mg/mL of MTT (3-(4,5-Dimethylthiazol-2-yl)-2,5-diphenyltetrazolium bromide). After incubation at 37 degrees Centigrade for 1-2 hours MTT is removed and cells are washed with 1X PBS once, followed by dimethyl sulfoxide (DMSO) to dissolve […]. Finally optical density (OD) of 570 nm is detected and medium only is used as a 100% cell viability.
A general note: Tetrazolium assays rely on reduction of a dye to a coloured formazan, in cell work by metabolically active cells.

In test [2] the test system is HepG2 human liver cancer cell. In words: cell viability assay (MTT assay), HepG2. The following applies: HepG2 cells, 24 hours treatment stated for D2 fraction. Here is the method:
as §1, §2

Test [3] has as its system 4T1 mouse breast cancer cell and HepG2 human liver cancer cell. Briefly: cell viability assay, summary over 4T1 and HepG2. The following applies: range over 4T1 and HepG2 cells. Here is the method: as §1, §2

Structures are written as SMILES.

As to `CC(C)=CCC1=C(Cl)C(=O)c2c(O)ccc(O)c2C1=O` [chlorosesamone], in test [1], the “50% inhibition concentration in 4T1 mouse breast cancer cell” value came out at 1.3 µg/mL. In test [2], the “50% inhibition concentration in HepG2 human liver cancer cell” value worked out at 0.8 µg/mL. Besides, the “50% inhibition concentration of chlorosesamone (range)” value in test [3] lay in the range of 0.8 to 1.3 µg/mL.
